Measured values as given in publication PMC6130562, “A phlorotannin constituent of Ecklonia cava alleviates postprandial hyperglycemia in diabetic mice” (Pharmaceutical Biology, 2017).

Tests used:
[1] = biological target: T1, α-amylase (porcine pancreatic amylase) (Sus scrofa, UniProt P00690); assay: chromogenic enzyme inhibition assay ([…] nm), commercial porcine pancreatic amylase; assay type: biochemical
T1 construct: gene AMY2
T1 sequence (P00690 16-511): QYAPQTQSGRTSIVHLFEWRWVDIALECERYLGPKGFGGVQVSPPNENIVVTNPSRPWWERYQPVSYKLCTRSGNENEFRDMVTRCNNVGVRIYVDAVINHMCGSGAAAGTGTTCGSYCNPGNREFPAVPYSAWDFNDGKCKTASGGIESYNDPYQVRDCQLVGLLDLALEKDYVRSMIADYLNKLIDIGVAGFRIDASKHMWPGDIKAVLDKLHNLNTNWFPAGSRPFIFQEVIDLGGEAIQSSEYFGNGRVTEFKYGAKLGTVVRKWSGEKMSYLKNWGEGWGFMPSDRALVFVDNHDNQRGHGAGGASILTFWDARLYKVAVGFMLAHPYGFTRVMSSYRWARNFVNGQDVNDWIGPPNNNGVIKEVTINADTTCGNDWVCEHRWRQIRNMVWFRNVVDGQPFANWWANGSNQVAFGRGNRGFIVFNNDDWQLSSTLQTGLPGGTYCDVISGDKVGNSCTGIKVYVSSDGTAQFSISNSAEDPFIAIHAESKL

α-glucosidase (yeast) = assay: chromogenic pNPG hydrolysis assay ([…] nm), commercial yeast enzyme; assay type: biochemical

IC50 [1]: 6.94 µM
IC50 (α-glucosidase (yeast)): 23.4 µM
SMILES: Oc1cc(O)cc(Oc2cc(O)c3c(c2-c2c(O)cc(O)c4c2Oc2c(O)cc(Oc5c(O)cc(O)cc5O)c(Oc5cc(O)cc(O)c5)c2O4)Oc2c(O)cc(O)c(Oc4cc(O)cc(O)c4)c2O3)c1 [2,7″-Phloroglucinol-6,6′-bieckol]
